In patent US20120141788A1, “PROCESS AND DEVICE FOR THE PRECIPITATION OF AN ORGANIC COMPOUND” (Fujifilm Manufacturing Europe B.V., priority 2006, published 2012):

Tests used:
[1] = Particle size distribution of the precipitate measured with a Malvern Mastersizer 2000; format: physicochemical; settings: precipitated particles; for D50 of this batch / D90 of this batch: ethanol/water, Malvern Mastersizer 2000
Excerpt: Preferably, the precipitated organic compound is in particulate form and has a D50 of less than 500 nm, more preferably less than 400 nm, even more preferably of less than 300 nm, and in particular less than 200 nm. The D50 can be measured by techniques known in the art, e.g. laser diffraction according to method ISO 13320-1 using e.g. a Malvern Mastersizer 2000 particle size analyser.
The particle size distribution is wide, including many particles of 10 μm edge length or more. […] The D50 of this batch is 14.59 μm. So 50% of all particles have a volume median size which is smaller than 14.59 μm. The D90 of this batch is 36.22 μm.
Particle size distribution was measured with a Malvern Mastersizer 2000. The D50 of this batch is 9.17 μm. The D90 of this batch is 18.72 μm. (FIG. 8)

[2] = Saturation concentration in ethanol; format: physicochemical; settings: 325 K

SMILES | particle size distribution (shape, in words) [1] | D50 of this batch [1] | D90 of this batch [1] | saturation conc. in EtOH [2]
CC(=O)[C@H]1CC[C@H]2[C@@H]3CC=C4C[C@@H](O)CC[C@]4(C)[C@H]3CC[C@]12C [Comparative Example 1, pregnenolone] | wide | 14.59 μm | 36.22 μm | –
CC(=O)[C@H]1CC[C@H]2[C@@H]3CC=C4C[C@@H](O)CC[C@]4(C)[C@H]3CC[C@]12C [Comparative Example 3, pregnenolone] | narrower particle size distribution than Comparative Example 2 | 9.17 μm | 18.72 μm | –
CC(=O)[C@H]1CC[C@H]2[C@@H]3CC=C4C[C@@H](O)CC[C@]4(C)[C@H]3CC[C@]12C [Inventive Example 1, pregnenolone] | narrow | 9.17 μm | 18.72 μm | –
CC(=O)[C@H]1CC[C@H]2[C@@H]3CC=C4C[C@@H](O)CC[C@]4(C)[C@H]3CC[C@]12C [pregnenolone] | – | – | – | 34 g/L
